“And” between values parts separate entries of the source, which are not always exact repeats. Equal entries are not always repeated. Where two headings read alike, the source gives them in different places.
Tests used:
[1] = UDCA levels in human after oral administration of liquid solution or syrup containing 600 mg UDCA per day (five subjects); type: in vivo; set-up: unit not given here
Description: FIG. 3: Diagram of the mean(n=5) for group I for pharmacokinetic parameters of UDCA in human after an oral administration of liquid formulation of UDCA prepared according to Example IX without bismuth. FIG. 4: Diagram of the mean(n=5) for group II for pharmacokinetic parameters of UDCA in human after an oral administration of liquid formulation of UDCA prepared according to Example IX. […] Cmax is shown. Five human subjects were provided with dosage forms prepared according to this Example. The results are shown in Tables 5A and 5B and rendered graphically in FIGS. 3 and 4.

[2] = cited from earlier work
[3] = Hematic levels of UDCA and glyco UDCA after oral administration of 200 mg UDCA aqueous solution to three healthy men (Example VI); type: in vivo, human
Experimental: The aqueous solution dosage forms, according to this invention, containing 200 mg of ursodeoxycholic acid (UDCA), were prepared according to the method described in the above-described Example III and were administered to three healthy men having normal body weight after fasting. The hematic levels of UDCA and glyco UDCA were evaluated by means of well known chemical methods. After applying buffered serum to sep-pak column, methanol eluate was derivatized with phenacyl bromide at 80° C. for 45 minutes. These phenacyl bromide derivatives were dissolved in acetonitrile in preparation for HPLC. The experimental results of the absorption measured at certain times after dosage administration include the total absorption expressed as the area under the serum concentration-time curve (AUC: μg/mL×hours), the maximum hematic concentration (Cmax; μg/mL) that has been obtained, and the time (Tmax; hour) in which said maximum concentration has been obtained.
The experimental pharmacokinetic tests of the aqueous solution dosage forms according to this invention carried out on men show substantial improvement in AUC, Cmax and Tmax in comparison with the best results from any dosage forms known presently.
Table 4A and Table 4B show plasma concentration of UDCA and GUDCA measured in 3 men over time following on oral administration of the UDCA and GUDCA containing formulations according to Example VI and comparison of results against results of others employing different pharmaceutical formulations of UDCA.

[4] = human, oral, Nagamatsu et al. (1997), cited from earlier work
[5] = oral, 200 mg UDCA solution of this invention

C[C@H](CCC(=O)O)[C@H]1CC[C@H]2[C@@H]3[C@@H](O)C[C@@H]4C[C@H](O)CC[C@]4(C)[C@H]3CC[C@]12C [UDCA, ursodeoxycholic acid (3α-7β-dihydroxy-5β-cholanic acid)]
UDCA level, Average ([1]; Table 5A: human, oral liquid solution containing 600 mg UDCA per day, 0 min): 0.618
UDCA level, Average ([1]; Table 5A: human, oral liquid solution containing 600 mg UDCA per day, 5 min): 4.578
UDCA level, Average ([1]; Table 5A: human, oral liquid solution containing 600 mg UDCA per day, 15 min): 20.394
UDCA level, Average ([1]; Table 5A: human, oral liquid solution containing 600 mg UDCA per day, 60 min): 10.202
UDCA level, Average ([1]; Table 5A: human, oral liquid solution containing 600 mg UDCA per day, 120 min): 2.168
UDCA level, Average ([1]; Table 5A: human, oral liquid solution containing 600 mg UDCA per day, 240 min): 0.772
UDCA level, Average ([1]; Table 5B: human, oral syrup containing 600 mg UDCA per day, 0 min): 0.398
UDCA level, Average ([1]; Table 5B: human, oral syrup containing 600 mg UDCA per day, 5 min): 1.976
UDCA level, Average ([1]; Table 5B: human, oral syrup containing 600 mg UDCA per day, 15 min): 7.144
UDCA level, Average ([1]; Table 5B: human, oral syrup containing 600 mg UDCA per day, 60 min): 15.000
UDCA level, Average ([1]; Table 5B: human, oral syrup containing 600 mg UDCA per day, 120 min): 4.820
UDCA level, Average ([1]; Table 5B: human, oral syrup containing 600 mg UDCA per day, 240 min): 1.258
solubility in the gastric juices and in aqueous hydrochloric acid solution [2]: especially insoluble
solubility in the gastric pH range [2]: no longer soluble
solubility in water [2]: practically insoluble
concentration at 0.25 h ([3]; male, human, plasma, po, 200 mg, 200 mg UDCA solution of this invention, 0.25 h, three men): 8430 ± 1690 ng/mL
concentration at 1 h ([3]; male, human, plasma, po, 200 mg, 200 mg UDCA solution of this invention, 1 h, three men): 1150 ± 470 ng/mL
concentration at 1.5 h ([3]; male, human, plasma, po, 200 mg, 200 mg UDCA solution of this invention, 1.5 h, three men): 320 ± 110 ng/mL
concentration at 0.5 h ([3]; male, human, plasma, po, 200 mg, oral, 200 mg UDCA solution of this invention, 0.5 h, three men, read-out: Plasma concentration, mean): 6550 ± 1050 ng/mL
concentration at 0.5 h ([3]; male, human, plasma, po, 200 mg, oral, 200 mg UDCA solution of this invention, 0.5 h, read-out: Plasma concentration, individual men #1-#3): 4450 ng/mL
concentration at 2 h ([3]; male, human, plasma, po, 200 mg, oral, 200 mg UDCA solution of this invention, 2 h, three men, read-out: Plasma concentration, mean): 190 ± 30 ng/mL
concentration at 2 h ([3]; male, human, plasma, po, 200 mg, oral, 200 mg UDCA solution of this invention, 2 h, read-out: Plasma concentration, individual men #1-#3): 235 ng/mL
concentration at 3 h ([3]; male, human, plasma, po, 200 mg, oral, 200 mg UDCA solution of this invention, 3 h, three men, read-out: Plasma concentration, mean): 170 ± 40 ng/mL
concentration at 3 h ([3]; male, human, plasma, po, 200 mg, oral, 200 mg UDCA solution of this invention, 3 h, read-out: Plasma concentration, individual men #1-#3): 124 ng/mL
AUC ([3]; male, human, plasma, po, 200 mg, oral, 200 mg UDCA solution of this invention, three men, read-out: AUC, mean): 5460 ± 660 ng·h/mL
AUC ([3]; male, human, plasma, po, 200 mg, oral, 200 mg UDCA solution of this invention, read-out: AUC, individual men #1-#3): 4320 ng·h/mL
Tmax ([3]; male, human, plasma, po, 200 mg, oral, 200 mg UDCA solution of this invention, read-out: Tmax, individual men #1-#3): 15 min
Cmax ([3]; male, human, serum, po, 200 mg, oral, 200 mg UDCA solution of this invention, three men, read-out: Cmax, mean): 8430 ± 1690 ng/mL
Tmax ([3]; male, human, serum, po, 200 mg, oral, 200 mg UDCA solution of this invention, three men, read-out: Tmax, mean): 15 min
AUC, individual men #1-#3 [3, 5]: 6600 ng·h/mL and 5470 ng·h/mL
Cmax, individual men #1-#3 [3, 5]: 5210 ng/mL and 10920 ng/mL and 9160 ng/mL
Plasma concentration, individual men #1-#3 ([3]; oral, 200 mg UDCA solution of this invention, 0.25 h): 5120.2 ng/mL and 10917.1 ng/mL and 9159 ng/mL
Plasma concentration, individual men #1-#3 ([3]; oral, 200 mg UDCA solution of this invention, 0.5 h): 7743.2 ng/mL and 7439.5 ng/mL
Plasma concentration, individual men #1-#3 ([3]; oral, 200 mg UDCA solution of this invention, 1 h): 1692.1 ng/mL and 1546 ng/mL and 216.3 ng/mL
Plasma concentration, individual men #1-#3 ([3]; oral, 200 mg UDCA solution of this invention, 1.5 h): 525.6 ng/mL and 275.9 ng/mL and 168 ng/mL
Plasma concentration, individual men #1-#3 ([3]; oral, 200 mg UDCA solution of this invention, 2 h): 217.6 ng/mL and 122.7 ng/mL
Plasma concentration, individual men #1-#3 ([3]; oral, 200 mg UDCA solution of this invention, 3 h): 207.4 ng/mL
Cmax compared with enteric coated sodium salt of UDCA preparations ([3]; oral, 200 mg, men): at least two times higher
Cmax compared with regular UDCA tablet preparations ([3]; oral, 200 mg, men): four times higher
Tmax compared with the fastest Tmax previously known ([3]; oral, 200 mg, men): at least three times faster
Cmax (M ± S.E.) ([4]; 200 mg): 1900 ± 250 ng/mL
Tmax (M ± S.E.) ([4]; 200 mg): 90 ± 24 min
Cmax (M ± S.E.) ([4]; 400 mg): 7090 ± 1430 ng/mL
Tmax (M ± S.E.) ([4]; 400 mg): 48 ± 12 min
